Assay results from US4017596A, “Radiopharmaceutical chelates and method of external imaging” (priority 1975, dated 1977).

Columns and labels:
[1] = Scintillation camera imaging and blood level in dogs after intravenous injection; settings: dog
Protocol: One animal was selected for imaging at various time intervals utilizing a scintillation camera. […] Sufficiet cholecystokinin was injected into the dog intravenously to effect contraction of the gall bladder. […] The images were obtained using a gamma scintillation camera (Pho Gamma III) and a parallel hole high sensitivity collimator.

[2] = Imaging in dog before and after plasma loading with bromosulphthalein (BSP), compared with I-131 Rose Bengal
[3] = Biodistribution in mice after intravenous injection (organ counting in scintillation counter); format: in vivo; settings: 25 g mice; i.v.; 60 minutes

Compound | time to leaving the gall bladder after cholecystokinin injection ([1]; after i.v. cholecystokinin, FIG. 4 Frame E) [min] | time at which the liver is clearly identified ([1]; i.v. 4 mCi, FIG. 3 Frame A) [min] | uptake by the liver ([1]; i.v. 4 mCi, anterior imaging, FIG. 3) | injected dose remaining in the blood ([1]; i.v. 4 mCi, at 10 minutes) | clearance from the liver / accumulation in gall bladder ([1]; i.v. 4 mCi, images at 25, 40 and 50 minutes) | injected dose remaining in the blood (second value of "10% and 3% ... respectively") ([1]; i.v. 4 mCi, only "10 minutes" printed, second time missing) [%] | effect of BSP loading on plasma clearance or imaging characteristics ([2]; dog, BSP levels of 4-7 mg percent to simulate hyperbilirubinemia) | image quality compared to I-131 Rose Bengal ([2]; same dog, FIG. 5) | injected dose in the intestines [3] [%] | injected dose in the liver [3] [%] | injected dose in the blood [3] [%]
Cc1cccc(C)c1NC(=O)CN(CC(=O)O)CC(=O)O (99mTc complex, metal not drawn) [Example 2] | ≤ 1 | 5 | rapid uptake by the liver | Less than 10% | clearance from the liver is demonstrated with progressive accumulation of the radiopharmaceutical in the gall bladder | < 3 | did not substantially alter the plasma clearance or imaging characteristics | much better quality |  |  | 
Oc1cccc2cccnc12 [Example 8, technetium-99m chelate of 8-hyroxyquinoline] |  |  |  |  |  |  |  |  | 20 | 40 | 
Oc1cccc2cccnc12 [Example 9, gallium-67 chelate of 8-hydroxyquinoline] |  |  |  |  |  |  |  |  | 13 | 25 | 20
